Our source for the XC50 values is ChEMBL document CHEMBL1157539, “Thousands of chemical starting points for antimalarial lead identification” (Nature, 2010).

The subject of the assay is Plasmodium falciparum. Description: GSK_TCMDC: Inhibition of Plasmodium falciparum 3D7 in whole erythrocytes, using parasite LDH activity as an index of growth. The format is functional, organism-based.

In the case of `Cc1cccc(NC(=S)NC2CCN(CCCCCNC(=O)/C=C/c3ccc(Cl)c(Cl)c3)CC2)c1`, the XC50 (Plasmodium falciparum, 3D7) was 948 nM.
Still for that read-out and setting: with `Cc1cc(Nc2nc(NCc3cccnc3)nc3ccccc23)n[nH]1` the figure was 852 nM; with `CC1(C)NC(N)=NC(=N)N1OCc1ccc2ccccc2c1CON1C(=N)N=C(N)NC1(C)C`, 663 nM; with `COc1ccc(-c2ccc(NC(=O)c3ccc(C#N)cc3)cc2)cc1CNC(C)C`, 529 nM.
In the case of `Cc1ccc(/C=C/C(=O)NC2CCC(CN3CCC(c4c[nH]c5ccccc45)CC3)CC2)cc1` (stereo not drawn), the XC50 came to 798 nM. This compound also had an XC50 (Plasmodium falciparum, 3D7) of 920 nM.
Consider `CN(/N=C/C=C/c1ccc(Cl)cc1)c1nc(NCCc2ccc(O)cc2)nc(N2CCNCC2)n1`, for which, where the note is “Plasmodium falciparum, 3D7”, the XC50 was 873 nM.
Still for that read-out and setting: for `COc1ccc(CNCc2ccsc2)cc1-c1ccc(S(=O)(=O)NCCN2CCCC2)s1` the value was 766 nM.
Same read-out and setting: for `COc1ccc(-c2c(C(F)(F)F)nn(C)c2NC(=O)Nc2ccc(F)cc2F)cc1` the value was 797 nM; for `Cc1nc(N)nc(N)c1-c1cccc(Cl)c1`, 1170 nM.
Same read-out and setting: with `COc1cccc(C(O)CNc2ccnc(Nc3cccc(-c4csc(C)n4)c3)n2)c1` (stereo not drawn) the figure was 786 nM; with `COc1cc(Cc2cnc(N)nc2N)cc(OCCCc2cc(OCc3ccccc3)no2)c1OC`, 1870 nM; with `Cn1c(NCc2cc(F)cc3c2OCOC3)nc2cc(Nc3ccnc(Nc4cccc(CS(C)(=O)=O)c4)n3)ccc21`, 149 nM.
`C=C(C)Cn1cc(C2CCN(CCCCNC(=O)c3sc(-c4ccc(Cl)cc4Cl)nc3CO)CC2)c2ccccc21`: where the note is “Plasmodium falciparum, 3D7”, the XC50 amounted to 1150 nM.
Same read-out and setting: with `CCN(CC)CCN(Cc1ccc(-c2ccc(C(F)(F)F)cc2)cc1)C(=O)Cn1c(SCc2ccc(F)c(F)c2F)nc(=O)c2c1CCC2` the figure was 1020 nM.
Still for that read-out and setting: for `CC(=O)Nc1ccc(C(=O)N2CCN(c3ccnc4cc(Cl)ccc34)CC2)cc1` the value was 909 nM; for `COc1ccc(Nc2nccc(NCCNC(=O)c3cc4ccccc4s3)n2)cc1`, 1020 nM.
On the same count and under the same terms, with `COc1ccc(NC(=O)Nc2nc3ccccc3s2)cc1N1CCN(C)CC1` the figure was 703 nM.
For the compound `Cc1cccc2nc(-c3cccc(-c4ccc(NC(=O)NCc5cccc(F)c5)cc4)c3)[nH]c12`, where the note is “Plasmodium falciparum, 3D7”, the XC50 amounted to 236 nM.
On the same count and under the same terms, with `CCCCCN1C(=O)C(c2ccccc2)(c2ccccc2)N=C1N` the figure was 793 nM; with `Cc1cc(CNCC(CCNc2cc(=O)c3ccccc3[nH]2)NCc2cc(Br)cc(Br)c2)oc1C` (stereo not drawn), 894 nM.
On the same count and under the same terms, for `Cc1ccnc2nc(C(=O)Nc3cc(C(F)(F)F)ccc3N3CCCCC3)nn12` the value was 61.8 nM; for `CN1CCN(c2cc3c(cc2Cl)CCN3C(=O)Nc2ccc(NC(=O)c3ccc(C(F)(F)F)cc3)cc2)CC1`, 515 nM; for `CCOC(=O)NCC(=O)Nc1cccc(-c2cccc(-c3nc4cccc(C)c4[nH]3)c2)c1`, 740 nM.
The same measure, in the same setting: for `COc1ccc(N2CCN(CCCCNCc3ccc(NC(=O)c4cc(Cl)cc(Cl)c4)cc3)CC2)c(OC)c1` the value was 253 nM.
Compound `CCC1(CC)C(=O)N=C(N2CCCCC2)N(C)C1=O` gave an XC50 (Plasmodium falciparum, 3D7) of 303 nM.
Same read-out and setting: for `CCC[C@@H]([C@@H](CC1CCCCC1)C(=O)N[C@H](C(=O)Nc1nccs1)C(C)(C)SCCNC(=O)OCc1ccccn1)N(O)C=O` the value was 162 nM; for `Cn1ccc(C(=O)Nc2ccc3c(c2)CN(Cc2ccc(N4CCCC4)o2)CCC3)n1`, 1310 nM; for `Cc1ccc(Cc2c[nH]c(NCCSCc3ccc(CN(C)C)s3)nc2=O)cn1`, 860 nM.
On the same count and under the same terms, for `Cc1c2ccc(N(C)c3ccnc(Nc4ccc5c(c4)nc(NC(C)C)n5C)n3)cc2nn1C` the value was 159 nM.
`CCOc1ccc2nc(NC(=O)c3csnn3)sc2c1` returned an XC50 (Plasmodium falciparum, 3D7) of 476 nM.
Still for that read-out and setting: for `Cc1cccc(NC(=O)N(Cc2cc3cc(C)cc(C)c3[nH]c2=O)C2CC2)c1` the value was 336 nM.
Regarding `Nc1nc(N)c2c3c(ccc2n1)CCC3`, the XC50 (Plasmodium falciparum, 3D7) is 928 nM.
For `O=C(Nc1cccc(C2=NCCN2)c1)Nc1cccc(C2=NCCN2)c1` [IMIDOCARB], the XC50 (Plasmodium falciparum, 3D7) worked out at 419 nM.
Same read-out and setting: with `Cc1noc(C)c1-c1cccc(CNCc2ccc(-c3cccc(-c4nc5ccccc5[nH]4)c3)cc2)c1` the figure was 569 nM; with `COc1ccc(S(=O)(=O)N2CCC(NS(=O)(=O)c3ccc(F)cc3)CC2)cc1`, 1330 nM; with `COCCN1CCN(Cc2ccc(-c3ccc(-c4nc5cc(F)ccc5[nH]4)cc3)cc2)CC1`, 717 nM.
On the same count and under the same terms, for `Cc1ccc(/C=C/C(=O)NCCCCCN2CCN(C(=O)Nc3ccc(Cl)c(C(F)(F)F)c3)CC2)cc1` the value was 1110 nM.
`COc1ccccc1CCNc1ncc(F)c(N[C@@H](Cc2ccccc2)C(=O)NCCc2ccccc2)n1`: the XC50 (Plasmodium falciparum, 3D7) came out at 965 nM.
On the same count and under the same terms, with `COc1cccc2cc(C(=O)N[C@@H](CC(C)C)C(=O)Nc3cc(F)ccc3Br)oc12` the figure was 965 nM.
The same measure, in the same setting: for `N=C(N)Nc1nc(-c2cccc(NC(=O)NCc3ccc(OC(F)(F)F)cc3)c2)cs1` the value was 703 nM.
The same measure, in the same setting: with `Cc1ccc(-c2nnc(Nc3ccc(OCC(N)=O)cc3)c3ccccc23)cc1S(=O)(=O)NCC1CCCO1` (stereo not drawn) the figure was 753 nM.
`COc1ccc(Nc2ncc3c(-c4cccc(NC(=O)Cc5ccc(F)cc5)c4)c[nH]c3n2)cc1OC` showed an XC50 (Plasmodium falciparum, 3D7) of 594 nM.
Same read-out and setting: with `CCN(CC)CCCCCNc1c2ccc(Cl)cc2nc2ccc(OC)cc12` the figure was 50.6 nM; with `O=C(Nc1ccc(Cl)cc1)c1ccc(CN2CCCN(Cc3ccc(F)cc3)CC2)cc1`, 966 nM; with `Cc1ccc(CNc2cc(C(F)(F)F)nc(-c3ccc(S(C)(=O)=O)cc3)n2)cc1`, 498 nM.
Consider `Cn1c(N)cc(-c2ccc(Br)cc2)c2c(=O)nc(N)nc1-2`, for which the XC50 (Plasmodium falciparum, 3D7) came out at 1130 nM.
`CC1(C)OC[C@]2(C)[C@@H](CC[C@]3(C)C4=CC(=O)CCC4CC[C@@H]23)O1` (stereo partly drawn) returned an XC50 (Plasmodium falciparum, 3D7) of 282 nM.
Still for that read-out and setting: for `Cc1noc(-c2ccc3c(c2)CCN(CCC2CCC(NC(=O)/C=C/c4cccc(Cl)c4)CC2)CC3)n1` (stereo not drawn) the value was 998 nM; for `Nc1nccc2ccc(-c3cccc4ncccc34)cc12`, 52.4 nM.
Same read-out and setting: for `CC(C)CCn1c(Sc2ccc(C#N)c([N+](=O)[O-])c2)nnc1-c1ccc(Cl)cc1` the value was 875 nM; for `CN(C)CC(=O)N(Cc1ccc(Cl)c(Cl)c1)Cc1csc(-c2ccc(CNCc3ccccc3)cc2)n1`, 1050 nM.
On to `Cc1ccc(NC(=O)c2ccc(N3CCN(c4ccncc4)CC3)cc2)cc1F`, for which the XC50 (Plasmodium falciparum, 3D7) stood at 736 nM.
`COc1cc(OCCCCCCON2C(=N)N=C(N)NC2(C)C)cc(OC)c1OC` registered an XC50 (Plasmodium falciparum, 3D7) of 3.2 nM.
Still for that read-out and setting: with `NC1=NC(Cc2ccccc2)N(c2ccc(Cl)cc2)C(N)=N1` (stereo not drawn) the figure was 137 nM; with `CCCCCCCN1CC[C@@H](CCCc2ccnc3ccc(OCCN4CCNCC4)cc23)[C@@H](CC)C1`, 771 nM.
On the same count and under the same terms, for `Cc1cccc2nc(-c3ccc(-c4cccc(CN5CCN(c6ccncc6)CC5)c4)cc3)[nH]c12` the value was 117 nM; for `COc1ccc(Nc2nccc(N3CCC(NS(=O)(=O)c4ccc(NC(C)=O)cc4)C3)n2)cc1` (stereo not drawn), 795 nM.
Still for that read-out and setting: for `c1cncc(CCNCc2ccc(-c3ccc(CNC4Cc5ccccc5C4)cc3)cc2)c1` the value was 1090 nM; for `CC[C@H](C)CNC(=O)c1ccnc(-c2ccc(CNCCCc3ccccc3)cc2)c1`, 1230 nM.
`CCCC1CCNC(C(O)c2ccnc3ccc(OC)cc23)C1` (stereo not drawn) returned an XC50 (Plasmodium falciparum, 3D7) of 426 nM.
In turn, `Cc1ccc(NCC(=O)Nc2ccc(F)c(Cl)c2)cc1S(=O)(=O)N1CCOCC1` returned an XC50 (Plasmodium falciparum, 3D7) of 57.6 nM.
Still for that read-out and setting: with `O=C(/C=C/c1ccc(Cl)c(Cl)c1)NCCCCCN1CCCC(CNC(=O)c2sc3ccccc3c2Cl)C1` (stereo not drawn) the figure was 870 nM.
